31 compounds from patent publication US20020028836A1, “Potassium channel openers” (priority 2000, published 2002) can be followed below.

A word on the EC50: it is the concentration that produces a half-maximal response. Higher therefore signals weaker potency. Usually Emax stands for the greatest response seen or fitted, relative to the assay's reference. The melting point is the temperature, or range, at which the solid turns liquid.

The structures appear in SMILES notation. Bounds are passed on as bounds.

For data set [1], the system named is primary cultured guinea-pig urinary bladder (GPB) cells. Kind of data set: Membrane hyperpolarization (MHP) assay, DiBAC(4)3 / FLIPR. Type of data set: cell-based. The note with it: Cavia porcellus; for EC50: concentration that elicits 50% of the maximal response for the test sample; for Emax: maximal steady-state hyperpolarization, normalized to response with 10 μM P1075 (100%). Summed up:
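Primary smooth-muscle cells from male guinea-pig bladder, grown to confluence, loaded 30 min at 37° C with 5 μM DiBAC(4)3 in HEPES buffer pH 7.4. Fluorescence drop on FLIPR followed 25 min after compound; steady-state hyperpolarization normalized to 10 μM P1075 (100%), EC50 from four-parameter fit of five concentrations.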

On to `Cc1ccc(C(=O)NC(NC(=S)Nc2cccc(C(F)(F)F)c2F)C(F)(F)F)cc1` (stereo not shown) [Example 5, 4-methyl-N-[2,2,2-trifluoro-1-({[2-fluoro-3-(trifluoromethyl)anilino]carbothioyl}amino)ethyl]benzamide], for which the melting point was in the range of 179 to 181 °C. In data set [1], the concentration for a half-maximal effect (EC50) worked out at 1080 nM and the Emax was determined as 106%.

The compound `COc1ccc(NC(=S)NC(NC(=O)c2ccc(C)cc2)C(F)(F)F)cc1` (stereo not shown) [Example 6, 4-methyl-N-(2,2,2-trifluoro-1-{[(4-methoxyanilino)carbothioyl]amino}ethyl)benzamide] yielded a melting point of 193 to 194 °C. In data set [1], this compound registered an EC50 of 1550 nM and an Emax of 107%. In the same order, the values of `Cc1ccc(C(=O)NC(NC(=S)Nc2ccc(Cl)nc2)C(F)(F)F)cc1` (stereo not shown) [Example 7, N-[1-({[(6-chloro-3-pyridinyl)amino]carbothioyl}amino)-2,2,2-trifluoroethyl]-4-methylbenzamide] are 199 to 200 °C, 450 nM and 101%. The compound `COc1ccccc1NC(=S)NC(NC(=O)c1ccc(C)cc1)C(F)(F)F` (stereo not shown) [Example 8, 4-methyl-N-(2,2,2-trifluoro-1-{[(2-methoxyanilino)carbothioyl]amino}ethyl)benzamide] had a melting point of 212 to 214 °C. Further, in data set [1], the EC50 is ≥ 10000 nM and the Emax came out at 10%. In the same order, the values of `Cc1ccc(NC(=S)NC(NC(=O)c2ccc(C)cc2)C(F)(F)F)cc1` (stereo not shown) [Example 10, 4-methyl-N-{2,2,2-trifluoro-1-[(4-toluidinocarbothioyl)amino]ethyl}benzamide] are 192 to 193 °C, 700 nM and 65%. In the same order, the values of `COc1cccc(NC(=S)NC(NC(=O)c2ccc(C)cc2)C(F)(F)F)c1` (stereo not shown) [Example 12, 4-methyl-N-(2,2,2-trifluoro-1-{[(3-methoxyanilino)carbothioyl]amino}ethyl)benzamide] are 206 to 208 °C, ≥ 10000 nM and 4%. On to `CC(C)(C)C(NC(=O)c1ccc(Cl)cc1)NC(=NC#N)NCc1ccc(Cl)cc1` (stereo not shown) [Example 79, 4-chloro-N-(1-{[[(4-chlorobenzyl)amino](cyanoimino)methyl]amino}-2,2-dimethylpropyl)benzamide], for which the melting point was 173 to 175 °C.

Compound `CC(C)(C)C(NC(=O)c1ccc(Cl)cc1)NC(=NC#N)NCc1cccnc1` (stereo not shown) [Example 80, 4-chloro-N-[1-({(cyanoimino)[(3-pyridinylmethyl)amino]methyl}amino)-2,2-dimethylpropyl]benzamide] registered a melting point of 188 to 189 °C. `CC(C)(C)C(NC(=O)c1ccc(Cl)cc1)NC(=NC#N)NCc1ccncc1` (stereo not shown) [Example 81, 4-chloro-N-[1-({(cyanoimino)[(4-pyridinylmethyl)amino]methyl}amino)-2,2-dimethylpropyl]benzamide] returned a melting point of 189 to 191 °C.

Compound `CC(C)(C)C(NC(=O)c1ccc(Cl)cc1)NC(=NC#N)NCc1ccccn1` (stereo not shown) [Example 82, 4-chloro-N-[1-({(cyanoimino)[(2-pyridinylmethyl)amino]methyl}amino)-2,2-dimethylpropyl]benzamide] showed a melting point of 184 to 185 °C. For `CC(C)(C)C(NC(=O)c1ccc(F)cc1)NC(=NC#N)Nc1cccnc1` (stereo not shown) [Example 107, N-(1-{[(cyanoimino)(3-pyridinylamino)methyl]amino}-2,2-dimethylpropyl)-4-fluorobenzamide], the melting point fell in the range of 195 to 196 °C. Compound `CN(C(=NC#N)Nc1cccnc1)C(NC(=O)c1ccc(Cl)cc1)C(C)(C)C` (stereo not shown) [Example 111, 4-chloro-N-{1-[[(cyanoimino)(3-pyridinylamino)methyl](methyl)amino]-2,2-dimethylpropyl}benzamide] yielded a melting point of 127 to 129 °C. Same read-out and setting: to `N#CN=C(Nc1cccnc1)NC(NC(=O)c1ccc(I)cc1)C(Cl)(Cl)Cl` (stereo not shown) [Example 114, 4-iodo-N-(2,2,2-trichloro-1-{[(cyanoimino)(3-pyridinylamino)methyl]amino}ethyl)benzamide] belongs 208 to 210 °C; to `CCCC(Cl)(Cl)C(NC(=O)c1ccc(Cl)cc1)NC(=NC#N)Nc1cccnc1` (stereo not shown) [Example 115, 4-chloro-N-(2,2-dichloro-1-{[(cyanoimino)(3-pyridinylamino)methyl]amino}pentyl)benzamide], 192 to 193 °C; to `N#CN=C(Nc1cccnc1)NC(NC(=O)c1cccc(Cl)c1)C(F)(F)C(F)(F)F` (stereo not shown) [Example 122, 3-chloro-N-(1-{[(cyanoimino)(3-pyridinylamino)methyl]amino}-2,2,3,3,3-pentafluoropropyl)benzamide], 183 to 185 °C. Still for that read-out and setting: to `CCCC(Cl)(Cl)C(NC(=O)c1ccc(Cl)cc1)NC(=N[N+](=O)[O-])Nc1cccnc1` (stereo not shown) [Example 136, 4-chloro-N-(2,2-dichloro-1-{[(nitroimino)(3-pyridinylamino)methyl]amino}pentyl)benzamide] belongs 198 to 200 °C; to `CC(Cl)(Cl)C(NC(=O)c1ccc(Cl)cc1)NC(=N[N+](=O)[O-])Nc1cccnc1` (stereo not shown) [Example 137, 4-chloro-N-(2,2-dichloro-1-{[(nitroimino)(3-pyridinylamino)methyl]amino}propyl)benzamide], 170 to 172 °C; to `CC(Cl)(Cl)C(NC(=O)c1cccc(Cl)c1)NC(=N[N+](=O)[O-])Nc1cccnc1` (stereo not shown) [Example 138, 3-chloro-N-(2,2-dichloro-1-{[(nitroimino)(3-pyridinylamino)methyl]amino}propyl)benzamide], 160 to 161 °C. `CC(C)(C)C(NC(=O)c1ccc(Cl)cc1)NC(=NS(=O)(=O)c1ccccc1)Nc1cccnc1` (stereo not shown) [Example 139, 4-chloro-N-(2,2-dimethyl-1-{[[(phenylsulfonyl)imino](3-pyridinylamino)methyl]amino}propyl)benzamide] showed a melting point of 196 to 197 °C. For the compound `CC(C)(C)CC(NC(=O)c1ccc(Cl)cc1)NC(=NS(=O)(=O)c1ccccc1)Nc1cccnc1` (stereo not shown) [Example 140, 4-chloro-N-(3,3-dimethyl-1-{[[(phenylsulfonyl)imino](3-pyridinylamino)methyl]amino}butyl)benzamide], the melting point was 199 to 200 °C. Still for that read-out and setting: to `CC(C)(C)C(NC(=O)Nc1ccccc1F)NC(=O)c1ccc(Cl)cc1` (stereo not shown) [Example 147, 4-chloro-N-(1-{[(2-fluoroanilino)carbonyl]amino}-2,2-dimethylpropyl)benzamide] belongs 229 to 230 °C. On the same count and under the same terms, for `CCCC(Cl)(Cl)C(NC(=O)c1ccc(Cl)cc1)NC(=C[N+](=O)[O-])Nc1cccnc1` (stereo not shown) [Example 151, 4-chloro-N-(2,2-dichloro-1-{[2-nitro-1-(3-pyridinylamino)ethenyl]amino}pentyl)benzamide] the value was 185 to 186 °C; for `CC(C)(C)C(NC(=O)c1ccc(Cl)cc1)NC(Nc1cccnc1)=C(C#N)C#N` (stereo not shown) [Example 152, 4-chloro-N-(1-{[2,2-dicyano-1-(3-pyridinylamino)vinyl]amino}-2,2-dimethylpropyl)benzamide], 213 to 214 °C.

Take `COc1ncccc1NC(=NC#N)NC(NC(=O)c1cc(F)cc(F)c1)C(C)(Cl)Cl` (stereo not shown) [Example 157, N-[2,2-dichloro-1-({(cyanoimino)[(2-methoxy-3-pyridinyl)amino]methyl}amino)propyl]-3,5-difluorobenzamide]: the melting point fell in the range of 125 to 126 °C. On the same count and under the same terms, to `COc1ncccc1NC(=NC#N)NC(NC(=O)c1cc(Cl)cc(Cl)c1)C(C)(Cl)Cl` (stereo not shown) [Example 164, 3,5-dichloro-N-[2,2-dichloro-1-({(cyanoimino)[(2-methoxy-3-pyridinyl)amino]methyl}amino)propyl]benzamide] belongs 149 to 150 °C; to `COc1ccccc1NC(=NC#N)NC(NC(=O)c1ccc(Cl)cc1)C(C)(Cl)Cl` (stereo not shown) [Example 181, 4-chloro-N-(2,2-dichloro-1-{[(cyanoimino)(2-methoxyanilino)methyl]amino}propyl)benzamide], 185 to 186 °C; to `COc1ccc(NC(=NC#N)NC(NC(=O)c2cccc(Cl)c2)C(C)(Cl)Cl)cn1` (stereo not shown) [Example 182, 3-chloro-N-[2,2-dichloro-1-({(cyanoimino)[(6-methoxy-3-pyridinyl)amino]methyl}amino)propyl]benzamide], 189 to 190 °C. Turning to `COc1cc(OC)cc(C(=O)NC(NC(=NC#N)Nc2ccc(C(F)(F)F)nc2)C(C)(Cl)Cl)c1` (stereo not shown) [Example 183, N-{2,2-dichloro-1-[((cyanoimino){[6-(trifluoromethyl)-3-pyridinyl]amino}methyl)amino]propyl}-3,5-dimethoxybenzamide], the melting point lay in the range of 187 to 189 °C.

Take `CC(Cl)(Cl)C(NC(=O)c1cc(Cl)cc(Cl)c1)NC(=NS(=O)(=O)C(F)(F)F)Nc1cccnc1` (stereo not shown) [Example 190, 3,5-dichloro-N-{2,2-dichloro-1-[((3-pyridinylamino){[(trifluoromethyl)sulfonyl]imino}methyl)amino]propyl}benzamide]: the melting point is 213 to 215 °C.

The compound `CC(Cl)(Cl)C(NC(=O)c1ccc(C(F)(F)F)cc1)NC(=NS(=O)(=O)C(F)(F)F)Nc1cccnc1` (stereo not shown) [Example 191, N-{2,2-dichloro-1-[((3-pyridinylamino){[(trifluoromethyl)sulfonyl]imino}methyl)amino]propyl}-4-(trifluoromethyl)benzamide] had a melting point of 214 to 215 °C. As to `CC(Cl)(Cl)C(NC(=O)c1cccnc1)NC(=NC#N)Nc1ccc(Cl)nc1` (stereo not shown) [Example 193, N-(2,2-dichloro-1-{[[(6-chloro-3-pyridinyl)amino](cyanoimino)methyl]amino}propyl)nicotinamide], the melting point fell in the range of 212 to 213 °C.
